Values after ≈ are worked out from the molar mass of the structure shown. Where two headings read alike, the source gives them in different places. Marks after values point to notes of the source that are not given here.
Experiments:
Candida glabrata 20/I = assay: Antifungal microdilution broth, CG; type: cell-based; details: Nakaseomyces glabratus, 20/I, read-out: MIC CG
[1] = system: Escherichia coli CCM 4517; assay: Antibacterial microdilution broth, EC; type: cell-based; details: Escherichia coli, read-out: MIC EC
[2] = system: Mycobacterium tuberculosis H37Rv CNCTC My 331/88 (ATCC 27294); assay: Antimycobacterial microdilution MABA, M. tuberculosis; type: cell-based; details: for MIC: Mycobacterium tuberculosis
[3] = system: Staphylococcus aureus H 5996/08 methicillin resistant; assay: microbe, parasite or virus in culture; type: cell-based; details: Staphylococcus aureus, MRSA, read-out: MIC MRSA
[4] = system: Staphylococcus aureus CCM 4516/08; assay: Antibacterial microdilution broth, SA; type: cell-based; details: Staphylococcus aureus
[5] = system: Aspergillus fumigatus 231; assay: Antifungal microdilution broth, AF; type: cell-based; details: read-out: MIC AF
Candida krusei E28 = assay: Antifungal microdilution broth, CK; type: cell-based; details: Pichia kudriavzevii, read-out: MIC CK
Trichosporon asahii 1188 = assay: Antifungal microdilution broth, TA; type: cell-based; details: read-out: MIC TA
[6] = system: Trichophyton interdigitale 445; assay: Antifungal microdilution broth, TI; type: cell-based; details: read-out: MIC TI
[7] = system: Mycobacterium smegmatis CCM 4622 (ATCC 607); assay: Antimycobacterial microdilution, M. smegmatis; type: cell-based; details: Mycolicibacterium smegmatis, read-out: M. smeg. ATCC 607 MIC
[8] = system: Candida albicans ATCC 44859; assay: Antifungal microdilution broth, CA; type: cell-based; details: Candida albicans, read-out: MIC CA
[9] = system: Enterococcus sp. J 14365/08; assay: Antibacterial microdilution broth, EF; type: cell-based; details: Enterococcus, read-out: MIC EF
[10] = system: Lichtheimia corymbifera 272; assay: Antifungal microdilution broth, LC; type: cell-based; details: read-out: MIC LC
[11] = system: M. kansasii CNCTC My 235/80 (ATCC 12478); assay: Antimycobacterial microdilution MABA, M. kansasii; type: cell-based, Mycobacterium kansasii; details: for MIC: Mycobacterium kansasii
[12] = system: Staphylococcus epidermidis H 6966/08; assay: Antibacterial microdilution broth, SE; type: cell-based; details: Staphylococcus epidermidis, read-out: MIC SE
[13] = system: Pseudomonas aeruginosa CCM 1961; assay: Antibacterial microdilution broth, PA; type: cell-based; details: Pseudomonas aeruginosa, read-out: MIC PA
Candida tropicalis 156 = assay: Antifungal microdilution broth, CT; type: cell-based; details: read-out: MIC CT
[14] = system: M. avium ssp. avium CNCTC My 80/72 (ATCC 15769); assay: Antimycobacterial microdilution MABA, M. avium; type: cell-based, Mycobacterium avium; details: for MIC: Mycobacterium avium
[15] = read-out: Mtb H37Rv ATCC 27294 MIC, Middlebrook 7H9 with OADC growth supplement, pH = 6.6, MABA
[16] = CCM4516, 24 h, read-out: MIC SA, 24 h
[17] = CCM4516, 48 h, read-out: MIC SA, 48 h
[18] = Aspergillus fumigatus, 231, 24 h
[19] = Aspergillus fumigatus, 231, 48 h
[20] = Trichosporon asahii, 1188, 24 h
[21] = Trichosporon asahii, 1188, 48 h
[22] = Trichophyton interdigitale, 445, 72 h
[23] = Trichophyton interdigitale, 445, 120 h
[24] = Lichtheimia corymbifera, 272, 24 h
[25] = Lichtheimia corymbifera, 272, 48 h
[26] = ATCC12478, pH 6.6, read-out: M. kans. ATCC 12478 MIC, Middlebrook 7H9 with OADC, pH 6.6, MABA
[27] = ATCC15769, pH 6.6, read-out: M. avium ATCC 15769 MIC
[28] = Middlebrook 7H9 with OADC growth supplement, pH = 6.6, MABA
[29] = Middlebrook 7H9 with OADC, pH 6.6, MABA
[30] = Middlebrook 7H9 with OADC growth supplement, pH = 6.6, MABA, read-out: Mtb H37Rv ATCC 27294 MIC
[31] = Middlebrook 7H9 with OADC, resazurin
[32] = ATCC12478, Middlebrook 7H9 with OADC, pH 6.6, MABA, read-out: M. kans. ATCC 12478 MIC
[33] = ATCC15769, Middlebrook 7H9 with OADC, pH 6.6, MABA, read-out: M. avium ATCC 15769 MIC

SMILES: COc1ccc(C(=O)Nc2cnc(Cl)cn2)cc1 [Compound 2g]
- MIC (Candida glabrata 20/I; 24 h): > 125 µM
- MIC (Candida glabrata 20/I; 48 h): > 125 µM
- MIC ([1]; CCM4517, 24 h): > 125 µM
- MIC ([1]; CCM4517, 48 h): > 125 µM
- melting point: 177.8 to 179 °C
- MIC [2, 15]: > 100 µg/mL
- MIC ([3]; 24 h): > 125 µM
- MIC ([3]; 48 h): > 125 µM
- MIC [4, 16]: > 125 µM
- MIC [4, 17]: > 125 µM
- MIC ([4]; CCM4516, read-out: MIC against S. aureus, time not stated): > 125 µM
- MIC [5, 18]: > 125 µM
- MIC [5, 19]: > 125 µM
- MIC (Candida krusei E28; E28, 24 h): > 125 µM
- MIC (Candida krusei E28; E28, 48 h): > 125 µM
- MIC (Trichosporon asahii 1188; [20]): > 125 µM
- MIC (Trichosporon asahii 1188; [21]): > 125 µM
- MIC [6, 22]: > 125 µM
- MIC [6, 23]: > 125 µM
- MIC [7]: ≥ 500 µg/mL
- MIC ([8]; ATCC44859, 24 h): > 125 µM
- MIC ([8]; ATCC44859, 48 h): > 125 µM
- MIC ([9]; SP.J14365/08, 24 h): > 125 µM
- MIC ([9]; SP.J14365/08, 48 h): > 125 µM
- MIC [10, 24]: > 125 µM
- MIC [10, 25]: > 125 µM
- MIC [11, 26]: > 100 µg/mL
- MIC ([12]; H6966/08, 24 h): > 125 µM
- MIC ([12]; H6966/08, 48 h): > 125 µM
- MIC ([13]; CCM1961, 72 h): > 125 µM
- MIC ([13]; CCM1961, 120 h): > 125 µM
- MIC (Candida tropicalis 156; Candida tropicalis, 156, 24 h): > 125 µM
- MIC (Candida tropicalis 156; Candida tropicalis, 156, 48 h): > 125 µM
- MIC [14, 27]: > 100 µg/mL

SMILES: O=C(Nc1cnccn1)c1ccccc1Cl [Compound 1j]
- MIC (Candida glabrata 20/I; 24 h): > 500 µM
- MIC (Candida glabrata 20/I; 48 h): > 500 µM
- MIC ([1]; CCM4517, 24 h): > 500 µM
- MIC ([1]; CCM4517, 48 h): > 500 µM
- melting point: 128.2 to 129.7 °C
- Mtb H37Rv ATCC 27294 MIC [2, 28]: >100 µg/mL
- MIC [2, 15]: > 100 µg/mL
- MIC ([3]; 24 h): > 500 µM
- MIC ([3]; 48 h): > 500 µM
- MIC [4, 16]: 250 µM (≈ 58.4 µg/mL)
- MIC [4, 17]: 250 µM (≈ 58.4 µg/mL)
- MIC [5, 18]: > 500 µM
- MIC [5, 19]: > 500 µM
- MIC (Candida krusei E28; E28, 24 h): > 500 µM
- MIC (Candida krusei E28; E28, 48 h): > 500 µM
- MIC (Trichosporon asahii 1188; [20]): > 500 µM
- MIC (Trichosporon asahii 1188; [21]): > 500 µM
- MIC [6, 22]: > 500 µM
- MIC [6, 23]: > 500 µM
- MIC [7]: 250 µg/mL (≈ 1070 µM)
- MIC ([8]; ATCC44859, 24 h): > 500 µM
- MIC ([8]; ATCC44859, 48 h): > 500 µM
- MIC ([9]; SP.J14365/08, 24 h): > 500 µM
- MIC ([9]; SP.J14365/08, 48 h): > 500 µM
- MIC [10, 24]: > 500 µM
- MIC [10, 25]: > 500 µM
- M. kans. ATCC 12478 MIC [11, 29]: >100 µg/mL
- MIC [11, 26]: > 100 µg/mL
- MIC ([12]; H6966/08, 24 h): 500 µM (≈ 117 µg/mL)
- MIC ([12]; H6966/08, 48 h): 500 µM (≈ 117 µg/mL)
- MIC ([13]; CCM1961, 72 h): 250 µM (≈ 58.4 µg/mL)
- MIC ([13]; CCM1961, 120 h): 250 µM (≈ 58.4 µg/mL)
- MIC (Candida tropicalis 156; Candida tropicalis, 156, 24 h): > 500 µM
- MIC (Candida tropicalis 156; Candida tropicalis, 156, 48 h): > 500 µM
- M. avium ATCC 15769 MIC [14, 29]: >100 µg/mL
- MIC [14, 27]: > 100 µg/mL

SMILES: COc1cccc(C(=O)Nc2cncc(Cl)n2)c1 [Compound 3f]
- melting point: 131.6 to 132.7 °C
- Mtb H37Rv ATCC 27294 MIC [2, 28]: 50 µg/mL
- MIC [2, 30]: 50 µg/mL (≈ 190 µM)
- MIC [7, 31]: ≥ 500 µg/mL
- M. kans. ATCC 12478 MIC [11, 29]: 100 ^c µg/mL
- MIC [11, 32]: 100 µg/mL (≈ 379 µM)
- M. avium ATCC 15769 MIC [14, 29]: 100 ^c µg/mL
- MIC [14, 33]: 100 µg/mL (≈ 379 µM)

SMILES: O=C(Nc1cnc(Cl)cn1)c1cccc(C(F)(F)F)c1 [Compound 2n]
- melting point: 155.4 to 156.4 °C
- MIC [2, 30]: 25 µg/mL (≈ 82.9 µM)
- MIC [7, 31]: ≥ 500 µg/mL
- M. kans. ATCC 12478 MIC [11, 29]: >100 µg/mL
- MIC [11, 32]: > 100 µg/mL
- M. avium ATCC 15769 MIC [14, 29]: >100 µg/mL
- MIC [14, 33]: > 100 µg/mL

SMILES: O=C(Nc1cncc(Cl)n1)c1ccccc1 [Compound 3a]
- melting point: 152.8 to 153.6 °C
- Mtb H37Rv ATCC 27294 MIC [2, 28]: >100 µg/mL
- MIC [2, 30]: > 100 µg/mL
- MIC [7, 31]: ≥ 500 µg/mL
- MIC [11, 32]: > 100 µg/mL
- MIC [14, 33]: > 100 µg/mL
